Experimental data reported in patent US20160053316A1, “Systems and Methods for Determining a C-Peptide Receptor, C-Peptide Receptor, and Methods of Using Same” (Saint Louis University, priority 2012, published 2016).

What was measured:
KATOIII cells = test: C-peptide-induced cFos mRNA expression (RT-PCR) in KATOIII cells; type: cell-based, human
Procedure: In utilizing the methodology to determine a C-peptide receptor, three human cell lines were determined (101) to respond to treatment with C-peptide with an up regulation of cFos message as determined by RT-PCR. These three were KATOIII (Human Stomach Carcinoma), HEK 293 (human embryonic kidney cells) and TF-1 (an erythroleukemia cell line). The results of tests to show responsiveness are provided graphically in FIGS. 2, 3, and 4. When these three cell lines were screened for the expression of known orphan GPCRs (103), 24 of the approximately 125 orphan GPCRs were expressed by all three cell types as indicated by the table of FIG. 5. Using bioinformatics, the pool of FIG. 5 can be narrowed (105) by eliminating any candidates already matched to other ligands or that had significant homology to GPCRs that bind to non-peptide targets (15 in this case). […] One GPCR (GPR107) could be eliminated as it was recently determined that this was the cognate receptor for neurostatin. […]
To evaluate whether anti-GPR146ex-induced enhancement of receptor capping and co-localization corresponded with an increase in C-peptide-induced cFos expression, KATOIII cells were treated with either vehicle (control media), 1 nM C-peptide, anti-GPR146ex (1:500), or anti-GPR146ex and 1 nM C-peptide for one hour at 37 degrees Celsius. […] Changes in cFos mRNA expression were evaluated using real time PCR (RT-PCR).

HEK293 cells = test: C-peptide-induced cFos mRNA expression (RT-PCR) in HEK293 cells; type: cell-based, human; details: treatment with C-peptide (FIG. 3)
Procedure: (§1) In utilizing the methodology to determine a C-peptide receptor, three human cell lines were determined (101) to respond to treatment with C-peptide with an up regulation of cFos message as determined by RT-PCR. These three were KATOIII (Human Stomach Carcinoma), HEK 293 (human embryonic kidney cells) and TF-1 (an erythroleukemia cell line). The results of tests to show responsiveness are provided graphically in FIGS. 2, 3, and 4. When these three cell lines were screened for the expression of known orphan GPCRs (103), 24 of the approximately 125 orphan GPCRs were expressed by all three cell types as indicated by the table of FIG. 5. Using bioinformatics, the pool of FIG. 5 can be narrowed (105) by eliminating any candidates already matched to other ligands or that had significant homology to GPCRs that bind to non-peptide targets (15 in this case). This is also shown in FIG. 5 with the items that are eliminated darkened. One GPCR (GPR107) could be eliminated as it was recently determined that this was the cognate receptor for neurostatin. This also allowed it to be used as a convenient control as evidenced later herein.

TF-1 cells = test: C-peptide-induced cFos mRNA expression (RT-PCR) in TF-1 cells; type: cell-based, human; details: treatment with C-peptide (FIG. 4)
Procedure: as §1

GPR146 = target: T1, GPR146 (Homo sapiens, UniProt Q96CH1); test: cFos response to C-peptide in siRNA-transfected KATOIII cells; type: cell-based; details: 1 nmole C-peptide
T1 construct: endogenous in cells; host or cells: KATOIII (human stomach carcinoma)
T1 sequence (Q96CH1 whole entry): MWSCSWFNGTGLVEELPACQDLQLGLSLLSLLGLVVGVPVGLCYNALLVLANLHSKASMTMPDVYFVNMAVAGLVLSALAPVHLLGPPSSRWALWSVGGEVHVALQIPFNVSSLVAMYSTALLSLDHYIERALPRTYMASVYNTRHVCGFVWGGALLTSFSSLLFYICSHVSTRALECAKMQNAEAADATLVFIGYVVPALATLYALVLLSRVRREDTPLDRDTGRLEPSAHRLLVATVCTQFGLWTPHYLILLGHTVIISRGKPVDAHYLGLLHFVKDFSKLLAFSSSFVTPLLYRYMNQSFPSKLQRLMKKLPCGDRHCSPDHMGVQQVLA
Procedure: Once the hierarchical candidates were identified and ranked, KATOIII cells were then transfected with siRNA (Integrated DNA technologies) (111) directed against either GPR107 (control), GPR146 (most likely candidate not yet tested) or eGFP (green fluorescent protein-control) using […] (Invitrogen). Five hours later, the media was changed to serum free control media (ATCC) and the serum was starved overnight. Twenty-four (24) hours after transfection with siRNA, cells were treated with 1 nmole C-peptide (Phoenix Pharmaceuticals) for 1 hour, then lysed and RNA were isolated using an RNeasy Kit (Qiagen). RNA was used as a template from the production of cDNA, and changes in cFos expression were determined using RT-PCR (BioRad 2x iQ SyberGreen Master Mix, using a BioRad CFX real time system). […] As this produced the desired negative response (113), GPR146 was the target GPCR (115). The receptiveness of GPR146 to C-peptide has since been verified by additional conventional tests.

For C-peptide, the “cFos mRNA expression, material alone” value (KATOIII cells; one hour at 37 degrees Celsius, 1 nM C-peptide or anti-GPR146ex 1:500 alone (FIG. 7)) was “increased cFos”, the “cFos mRNA expression” value (KATOIII cells; treatment with C-peptide (FIG. 2)) was “increase in cFos mRNA expression” and the “cFos mRNA expression” value (HEK293 cells) was “increase in cFos mRNA expression”. The “cFos mRNA expression” value (TF-1 cells) was “increase in cFos mRNA expression”, the cFos expression (GPR146; KATOIII cells transfected with Vehicle, GPR107 siRNA or eGFP siRNA (controls), 1 hour) was “increase in cFos” and the cFos expression (GPR146; KATOIII cells with GPR146 compromised by siRNA, 1 hour (FIG. 6)) was “failed to respond”.
